We go through 5 compounds from US5703050A (Hoechst Aktiengesellschaft, priority 1993, dated 1997).

Like-named read-outs stand apart in the source and are kept apart here.

Broadly, the IC50 is the midpoint of a concentration-inhibition curve. The term Ki denotes the dissociation constant of the complex between target and ligand, obtained from inhibition or displacement.

The subject of assay [1] is gel-filtered human platelets. Nature of the assay: Inhibition of the aggregation of gel-filtered human platelets after ADP or thrombin stimulation. In kind it is cell-based. The following applies: platelet aggregation. On the procedure: (§1) The compounds are tested in particular for their inhibitory effect on blood platelet aggregation and the adhesion of fibrinogen to blood platelets. Gel-filtered blood platelets from human donor blood are used, which are activated with ADP or thrombin.
As a functional test, the inhibition of the aggregation of gel-filtered human platelets is measured after ADP or thrombin stimulation by the compounds according to the invention. The IC50 value of the inhibition is indicated (reference: G. A. Marguerie et al., J. Biol. Chem. 254 (1979), 5357-5363).

Assay [2] concerns the target T1, fibrinogen receptor (glycoprotein IIb/IIIa) (Homo sapiens, UniProt P05106+P08514).
T1 construct: its receptor (glycoprotein IIb/IIIa) on intact, gel-filtered human platelets; endogenous in cells; host or cells: gel-filtered platelets from human donor blood, stimulated with ADP (10 uM)
Nature of the assay: Inhibition of binding of 125I-fibrinogen to its receptor on intact, gel-filtered human platelets. As to conditions: inhibition of 125I-fibrinogen binding after stimulation with ADP (10 μM), read-out: Ki (μM), ADP-stimulated. The procedure:
as §1
The inhibition of the binding of fibrinogen to its receptor (glycoprotein IIb/IIIa) on intact, gel-filtered human platelets by the compounds according to the invention is tested. The Ki value of the inhibition of binding of 125I-fibrinogen after stimulation with ADP (10 μM) is indicated. (Reference: J. S. Bennett and G. Vilaire, J. Clin. Invest. 64 (1979) 1393-1401; E. Kornecki et al., J. Biol. Chem. 256 (1981), 5695-5701; G. A. Marguerie et al., J. Biol. Chem. 254 (1979) 5357-5363; G. A. Marguerie et al., J. Biol. Chem. 255 (1980) 154-161.)

The mark [3] stands for this setting: ADP stimulation, read-out: ADP-stimulated IC50.
[4] abbreviates: thrombin stimulation, read-out: thrombin-stimulated IC50.

T1 sequence (P08514 32-887 limits assumed): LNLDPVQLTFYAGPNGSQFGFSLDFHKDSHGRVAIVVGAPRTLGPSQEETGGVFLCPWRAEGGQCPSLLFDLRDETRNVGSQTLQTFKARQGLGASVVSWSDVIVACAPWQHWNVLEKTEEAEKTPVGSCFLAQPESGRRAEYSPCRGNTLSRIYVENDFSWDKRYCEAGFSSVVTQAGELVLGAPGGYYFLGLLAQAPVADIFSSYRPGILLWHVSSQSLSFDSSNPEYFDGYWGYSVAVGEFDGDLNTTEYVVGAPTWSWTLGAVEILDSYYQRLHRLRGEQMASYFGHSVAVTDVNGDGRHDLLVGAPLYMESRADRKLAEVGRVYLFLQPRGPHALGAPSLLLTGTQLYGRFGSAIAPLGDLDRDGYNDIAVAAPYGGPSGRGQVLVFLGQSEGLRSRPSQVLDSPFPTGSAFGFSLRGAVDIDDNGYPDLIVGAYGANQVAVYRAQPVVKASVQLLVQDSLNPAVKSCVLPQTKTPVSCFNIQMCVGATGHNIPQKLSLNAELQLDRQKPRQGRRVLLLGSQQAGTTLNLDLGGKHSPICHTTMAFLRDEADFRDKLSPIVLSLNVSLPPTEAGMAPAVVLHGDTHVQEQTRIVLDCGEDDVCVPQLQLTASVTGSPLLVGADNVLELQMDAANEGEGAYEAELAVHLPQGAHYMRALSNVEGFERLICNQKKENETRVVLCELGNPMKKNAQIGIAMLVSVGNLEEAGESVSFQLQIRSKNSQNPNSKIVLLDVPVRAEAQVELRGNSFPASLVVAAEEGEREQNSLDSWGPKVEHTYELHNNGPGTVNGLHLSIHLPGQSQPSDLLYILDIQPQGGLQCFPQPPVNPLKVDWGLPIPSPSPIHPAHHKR
T1 sequence (P08514 891-1039 limits assumed): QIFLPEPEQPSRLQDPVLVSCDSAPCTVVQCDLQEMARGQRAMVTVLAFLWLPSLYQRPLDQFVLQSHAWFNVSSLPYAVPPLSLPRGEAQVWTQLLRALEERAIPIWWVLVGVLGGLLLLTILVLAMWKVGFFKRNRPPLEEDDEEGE
T1 sequence (P05106 27-788): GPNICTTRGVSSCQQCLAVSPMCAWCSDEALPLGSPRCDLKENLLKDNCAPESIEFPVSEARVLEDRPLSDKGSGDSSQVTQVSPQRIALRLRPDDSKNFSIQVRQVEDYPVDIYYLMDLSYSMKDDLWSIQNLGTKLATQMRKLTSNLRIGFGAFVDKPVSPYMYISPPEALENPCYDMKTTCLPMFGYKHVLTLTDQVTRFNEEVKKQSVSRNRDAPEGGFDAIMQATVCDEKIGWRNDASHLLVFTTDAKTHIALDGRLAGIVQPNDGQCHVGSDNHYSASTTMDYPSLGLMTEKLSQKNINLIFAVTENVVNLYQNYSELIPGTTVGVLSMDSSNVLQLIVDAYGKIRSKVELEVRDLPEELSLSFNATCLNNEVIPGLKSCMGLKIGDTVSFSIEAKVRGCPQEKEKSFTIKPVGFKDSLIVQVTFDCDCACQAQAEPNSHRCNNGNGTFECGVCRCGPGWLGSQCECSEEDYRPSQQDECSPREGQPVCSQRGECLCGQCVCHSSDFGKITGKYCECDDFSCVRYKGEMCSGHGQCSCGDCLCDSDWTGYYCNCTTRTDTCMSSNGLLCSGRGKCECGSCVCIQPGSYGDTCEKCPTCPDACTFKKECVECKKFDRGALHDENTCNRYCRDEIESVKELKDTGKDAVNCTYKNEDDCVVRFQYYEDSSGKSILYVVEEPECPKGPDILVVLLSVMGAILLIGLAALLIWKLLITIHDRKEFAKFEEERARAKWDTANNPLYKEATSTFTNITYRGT

Consider “3-(3-(3-Aminopropyl)ureido)benzoyl-L-aspartyl-L-phenylglycine [Example 10]”, for which the IC50 was determined as 8500 nM in assay [1] (setting [3]) and 3000 nM in assay [1] (setting [4]).
With “3-((3-(4-(Aminoiminomethyl)phenyl)ureido)acetylamino)-3-phenyl-propionic acid [Example 7]”, the values for the IC50 in assay [1] (setting [3]) and in assay [1] (setting [4]) were 3000 nM and 1500 nM, respectively.
`N=C(N)c1ccc(NC(=O)NCC(=O)N[C@@H](CC(=O)O)C(=O)N[C@H](C(=O)O)c2ccccc2)cc1` [Example 1]: the IC50 was found to be 150 nM in assay [1] (setting [3]) and 100 nM in assay [1] (setting [4]). For the same compound, in assay [2], the Ki stood at 0.03 µM.
Take “(3-(4-(Aminoiminomethyl)phenyl)ureido)acetyl-L-aspartyl-L-phenylglycine methyl ester trifluoroaetate [Example 6]”: the IC50 in assay [1] (setting [3]) amounted to 750 nM; in assay [1] (setting [4]) it was 300 nM.
Turning to “(3-(4-(Aminoiminomethyl)phenyl)ureido)acetyl-L-aspartylbenzylamide [Example 8]”, the IC50 in assay [1] (setting [3]) and in assay [1] (setting [4]) was 2000 nM each time.
